Results reported in patent US4721711A, “Pyridazine derivatives active on the central nervous system, and medicaments in which they are present” (Sanofi, priority 1983, dated 1988).

Experiments:
[1] = molecular target: GABA post-synaptic receptor; experiment: displacement of tritiated GABA from its post-synaptic receptor (synaptic membranes, Enna and Snyder); type: binding; details: in vitro, tritiated GABA 3.6 nM, read-out: Median effective concentration (EC50) for displacement of tritiated GABA
Procedure: The products according to the invention were studied for their activity on the central nervous system. Activity on the displacement of .UPSILON.-aminobutyric acid from its post-synaptic receptor. Method: The neurochemical activity of the derivatives of the present invention on the GABA-ergic system was evaluated by measuring the displacement of .UPSILON.-aminobutyric acid (GABA) from its post-synaptic receptor. The study was carried out by the method of ENNA and […] (Brain Res. 100, 81-97, 1975). The displacement experiment was carried out in vitro in the presence of a suspension of synaptic membranes and tritiated GABA at a final concentration of 3.6 nM.

[2] = system: rotational behaviour of mice; experiment: rotational behaviour of mice after unilateral lesion of the nigro-striated passage by 6-(OH)-dopamine; type: in vivo, CD1 Charles River female mice; details: intraperitoneal, 1 hour after administration, over 2 minutes, **p 0.01
Procedure: 3. Effect on the rotational behaviour of mice after unilateral lesion of the nigro-striated passage by 6-(OH)-dopamine
The influence of the derivatives of the present invention on the central dopaminergic system was evaluated on the rotational behaviour of mice after unilateral lesion of the nigro-striated passage by 6-(OH)-dopamine. (P. PROTAIS and J. COSTENTIN, J. Pharmacol. 7(2), 251-255, 1976).
CD1 Charles River female mice, weighing 20 to 24 g, have previously undergone unilateral lesion of the striatum by the stereotaxic injection of 6-(OH)-dopamine at a dose of 8 μg per animal. One week after this operation, the product to be studied was administered intraperitoneally to grouos of 7 mice. The number of rotations was evaluated over 2 minutes, 1 hour after the administration of the product. The rotations on the same side as the lesion were counted as positive and those on the opposite side were counted as negative. The algebraic sum of the rotations for a group treated animals was compared with that for the group of control animals which had only received the vehicle (physiological serum).

[3] = system: reserpine-induced ptosis in mice; experiment: antagonism of reserpine-induced ptosis in mice; type: in vivo; details: Mus musculus, ip; intraperitoneal, with reserpine 2 mg/kg i.v., 1 hour, probit; (26-32)* on the line below
Procedure: 2. Effect on the antagonism of reserpine-induced ptosis
The antidepressive activity of the compounds was evaluated in the test for the antagonism of reserpine-induced ptosis in mice.
This study was carried out on batches of 10 female mice weighing 20±1 g. The products were administered intraperitoneally at the same time as the reserpine (2 mg/kg, administered intravenously). The mice were observed individually 1 hour after the administrations. […] The median effective dose for antagonism (ED50) was evaluated by the probit method.

[4] = system: spontaneous motility of mice; experiment: spontaneous motility of mice (activity test); type: in vivo; details: oral, 45 minutes after administration, recorded 10 minutes
Procedure: 1. Activity on the motility of mice
The tranquillising-sedative activity of the derivatives of the present invention was evaluated by measuring the spontaneous motility of mice by means of the activity test (J. R. BOISSIER and P. SIMON, Arch. Int. Pharmacodyn. 1965, 158, 212-221).
The equipment consisted of activity cages of the Apelab type (length=26 cm; width=21.5 cm; height=10 cm), through which two rays of light pass, acting on a photoelectric cell.
The animals were placed individually in the cages 45 minutes after oral administration of the product: each crossing of a light beam was counted by an individual counter. The scores corresponding to the movements of the animals were recorded for 10 minutes. The batches consisted of 12 mice per dose.

Cc1cc(-c2cccc3ccccc23)n[n+](CCCC(=O)O)c1N [Example 24, 3-Amino-2-(3-carboxypropyl)-4-methyl-6-(naphth-1-yl)-2-pyridazinium chloride]
EC50 [1]: 2900 nM

COc1ccc(-c2cc(C)c(N)[n+](CCCC(=O)O)n2)cc1 [Example 27]
EC50 [1]: 5000 nM

Cc1cc(-c2ccccc2Cl)n[n+](CCCC(=O)O)c1N [Example 29]
EC50 [1]: 3200 nM

Nc1ccc(-c2ccc(Cl)cc2Cl)n[n+]1CCCC(=O)O [Example 30]
EC50 [1]: 7000 nM

Nc1ccc(-c2ccc(Cl)cc2)n[n+]1CCCC(=O)O [Example 31]
EC50 [1]: 1250 nM

Cc1cc(-c2cccc(Cl)c2)n[n+](CCCC(=O)O)c1N [Example 33]
EC50 [1]: 700 nM

Cc1ccc(-c2cc(C)c(N)[n+](CCCC(=O)O)n2)cc1 [Example 34]
EC50 [1]: 710 nM

Cc1cc(-c2ccccc2)n[n+](CCCC(=O)O)c1N [Example 37]
EC50 [1]: 2800 nM

Nc1ccc(-c2ccccc2)n[n+]1CCCC(=O)O [Example 38]
EC50 [1]: 1340 nM

Cc1cc(-c2ccccc2)n[n+](CCC(=O)O)c1N [Example 39]
EC50 [1]: 10000 nM

Cc1cc(-c2ccccc2)n[n+](CCCCC(=O)O)c1N [Example 40]
Rotational behaviour of mice, effect ([2]; 0,5 mg/kg): -50%
Rotational behaviour of mice, effect ([2]; 2 mg/kg): -62%
ED50 [3]: 29 mg/kg
Motility of the mice, effect ([4]; 50 mg/kg, *p 0.05): -33%
Motility of the mice, effect ([4]; 100 mg/kg, **p 0.01): -48%

Nc1ccc(C2CCCCC2)n[n+]1CCCC(=O)O [Example 41]
EC50 [1]: 10500 nM

Nc1ccc(-c2ccsc2)n[n+]1CCCC(=O)O [Example 42]
EC50 [1]: 2400 nM

Nc1ccc(-c2cccs2)n[n+]1CCCC(=O)O [Example 43]
EC50 [1]: 830 nM

Cc1cc(-c2ccc(O)cc2)n[n+](CCCC(=O)O)c1N [Example 47, 3-Amino-2-(3-carboxypropyl)-4-methyl-6-(4-hydroxyphenyl)-2-pyridazinium bromide]
EC50 [1]: 3000 nM
